The text below walks through data of paper PMC12678337, “EAR-20 peptide, a novel NMDA receptor positive allosteric modulator” (Frontiers in Pharmacology, 2025).

One test deals with GluN1-GluN2A receptors. Conditions: channel blocker; ref Wang et al., 2021; cited from earlier work.
Test [1] relates to triheteromeric NMDARs (GluN1, GluN2A, GluN2B). Conditions: cited from earlier work.
For test [2], the system named is GluN2B-containing di-heteromers. Conditions: ref Kellner and Berlin, 2024; cited from earlier work.
A further test deals with NMDARs. Details: method as in 3 sources, one per row (each row's own in cited_ref): ref Johnson and Ascher, 1987 ||| ref Chopra et al., 2015 ||| ref Lerma, 1992. The following applies: cited from earlier work.
The target of the next test is T1, GluN1-GluN2B (Rattus norvegicus, UniProt P35439+Q00960).
T1 construct: GFP (N); expressed in transfected cells; host or cells: HEK-293T
T1 sequence (Q00960 27-1482, other chains not shown): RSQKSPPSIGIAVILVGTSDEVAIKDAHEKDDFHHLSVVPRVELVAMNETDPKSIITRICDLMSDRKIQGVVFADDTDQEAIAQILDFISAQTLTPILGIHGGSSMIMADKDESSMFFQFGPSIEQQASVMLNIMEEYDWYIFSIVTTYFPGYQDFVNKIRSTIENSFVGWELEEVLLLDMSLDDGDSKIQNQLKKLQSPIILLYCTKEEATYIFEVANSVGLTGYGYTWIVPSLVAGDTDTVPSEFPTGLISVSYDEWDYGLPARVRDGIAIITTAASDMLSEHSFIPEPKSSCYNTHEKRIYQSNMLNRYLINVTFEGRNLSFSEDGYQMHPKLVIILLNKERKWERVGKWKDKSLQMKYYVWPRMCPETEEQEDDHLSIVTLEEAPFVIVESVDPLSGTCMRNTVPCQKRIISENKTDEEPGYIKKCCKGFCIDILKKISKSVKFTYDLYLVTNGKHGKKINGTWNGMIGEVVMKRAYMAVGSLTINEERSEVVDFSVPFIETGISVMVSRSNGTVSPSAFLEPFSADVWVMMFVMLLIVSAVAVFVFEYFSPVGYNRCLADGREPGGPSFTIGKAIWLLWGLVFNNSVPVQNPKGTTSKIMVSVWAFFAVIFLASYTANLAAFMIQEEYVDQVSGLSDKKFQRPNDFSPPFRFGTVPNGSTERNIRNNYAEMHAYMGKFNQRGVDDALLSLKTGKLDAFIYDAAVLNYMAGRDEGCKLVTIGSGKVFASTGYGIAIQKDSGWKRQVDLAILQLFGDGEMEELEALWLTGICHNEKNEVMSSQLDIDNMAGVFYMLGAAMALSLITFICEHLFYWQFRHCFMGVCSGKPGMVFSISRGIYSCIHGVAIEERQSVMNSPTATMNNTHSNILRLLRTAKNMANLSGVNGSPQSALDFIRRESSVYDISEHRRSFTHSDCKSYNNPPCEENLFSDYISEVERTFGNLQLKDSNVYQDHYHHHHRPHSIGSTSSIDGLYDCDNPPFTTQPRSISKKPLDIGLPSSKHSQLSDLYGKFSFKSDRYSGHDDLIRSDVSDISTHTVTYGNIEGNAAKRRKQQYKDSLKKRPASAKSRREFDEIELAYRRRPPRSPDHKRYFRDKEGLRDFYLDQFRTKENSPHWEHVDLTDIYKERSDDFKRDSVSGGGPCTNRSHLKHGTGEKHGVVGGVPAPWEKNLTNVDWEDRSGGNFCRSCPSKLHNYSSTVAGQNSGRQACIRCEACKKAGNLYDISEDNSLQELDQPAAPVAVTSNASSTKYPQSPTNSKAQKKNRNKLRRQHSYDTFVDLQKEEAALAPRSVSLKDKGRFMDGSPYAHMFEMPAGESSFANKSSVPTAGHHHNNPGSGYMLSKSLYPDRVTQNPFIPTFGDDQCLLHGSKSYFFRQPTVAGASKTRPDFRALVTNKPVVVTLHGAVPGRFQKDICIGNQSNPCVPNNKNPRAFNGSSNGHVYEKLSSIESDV
In kind it is cell-based.

In a further test the test system is GluN1-GluN2B^ΔNTD. Put plainly: whole-cell patch clamp, ifenprodil inhibition of NTD-deleted GluN1-GluN2B. In kind it is cell-based. Conditions: 10 µM ifenprodil co-applied with agonists; HEK-293.
For test [3], the system named is synaptic NMDARs, cultured hippocampal neurons. The format is cell-based, rat.

No end group written: not given here.

With `Nc1c2ccccc2nc2ccccc12` [9-aminoacridine], in the test on GluN1-GluN2A receptors, the current following removal result was “a transient inward current”.

Consider `NCCCNCCCCNCCCN` [spermine], for which the “enhancement of triheteromeric NMDARs” value in test [1] (ref Kellner and Berlin, 2024) is on record as “fails to enhance triheteromeric NMDARs”. For the same compound, in test [2], the “potentiation of GluN2B-containing di-heteromers” value is “strongly potentiates GluN2B-containing di-heteromers”.

As to `N[C@@H](CCC(=O)O)C(=O)O` [glutamate, L-glutamate, reference compound], the “activation by glutamate alone” value in the test on NMDARs (ref Johnson and Ascher, 1987) was “slightly activate the channel”. In addition, the “response to glutamate alone” value at GluN1-GluN2B is listed as “generated a significant current response”.

pregnenolone sulfate: the “tail-like response on removal of modulator” value in the test on NMDARs is “tail-like response”.

Take `CC(C(O)c1ccc(O)cc1)N1CCC(Cc2ccccc2)CC1` (stereo not shown) [ifenprodil]: the “inhibition of agonist-evoked current” value in the test with GluN1-GluN2B^ΔNTD is on record as “no inhibitory effect was observed”.

As for “Con-G: marine cone snail toxin, NMDAR antagonist targeting the GluN2B ligand binding domain (GEEELQENQELIREKSN; not fully specified (residues 3, 4, 7, 10, 14, C-terminus); ends and bridges not checked; UniProt P07231 81-97, looked up)”, in the test on NMDARs, the NMDAR activity entry is recorded as “NMDAR antagonist”.

With `CC12CC3CC(C)(C1)CC(N)(C3)C2` [memantine], the “affinity for triheteromeric NMDARs” value in test [1] (compared to NMDARs containing only GluN2B, ref Chen et al., 2020) is recorded as “lower affinity for triheteromeric NMDARs”. Further, in test [3], the “effect on EPSCs” value was “abolished”.
